Assay results reported in patent US20250171465A1, “AKT INHIBITORS” (Stablix, Inc., priority 2023, published 2025).

What was measured:
Assay type in all cases: cell-based
MDAMB231.1 = assay: Cell Titer Glo (CTG) proliferation assay, MDA-MB-231; conditions: Homo sapiens, MDA-MB-231; MDAMB231.1 cells, 72 hrs.; read-out: AVE CTG Proliferation MDAMB231.1 72 hrs.
Procedure: (§1) Seed cells in 40 μL of cell culture media into each well of 384-well cell culture plate, spin them at room temperature at 1,000 RPM for 1 minute and then transfer the plates into 37° C. 5% CO2 incubator overnight. Next day, treat cells with 40 nL of diluted compound and return to incubator. After compound treatment for 3 days, Add 30 μL of CellTiter-Glo reagent (Promega) into each well to be detected. Then place the plates at room temperature for 30 min followed by reading on EnVision. Inhibition activity calculated as % DMSO=100×(LumSample-Lum low control)/(Lum high control-Lum low control) where high control is from cells treated with 0.1% DMSO and Low control obtained from PBS only. Use XLFit (equation 201) to calculate IC50 (A+ ((B−A)/(1[…]((x/C)^D)))) where A: Bottom, B: Top, C: IC50, D: Slope.

MDAMB468.1 = assay: Cell Titer Glo (CTG) proliferation assay, MDA-MB-468; conditions: Homo sapiens, MDA-MB-468; MDAMB468.1 cells, 72.0 hrs.; read-out: AVE CTG Proliferation MDAMB468.1 72.0 hrs.
Procedure: as §1

KU1919.1 = assay: Cell Titer Glo (CTG) proliferation assay, KU1919; conditions: Homo sapiens, KU-19-19; KU1919.1 cells, 72.0 hrs.; read-out: AVE CTG Proliferation KU1919.1 72.0 hrs.
Method in brief: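 After overnight seeding at 37 °C, 5% CO2, cells were exposed to compound for 3 days. Viability read by CellTiter-Glo luminescence after 30 min at room temperature.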

| Structure (SMILES) | IC50 (MDAMB231.1) | IC50 (MDAMB468.1) | IC50 (KU1919.1) |
| --- | --- | --- | --- |
| CC(C)(C)OC(=O)N1CCC(OC2CCN(CC(=O)N3CCN(CC[C@H](NC(=O)C4(N)CCN(c5ncnc6[nH]ccc56)CC4)c4ccc(Cl)cc4)CC3)CC2)CC1 [Compound I-315] | > 10 µM | 1 to 5 µM | 1 to 5 µM |
| C[C@@H]1C[C@@H](O)c2ncnc(N3CCN(C(=O)[C@H](CNCCNC(=O)CN4CCC(CN5CCN(C(=O)c6cccc(C7CCCN(C(=O)CNCc8ccc(F)cc8F)C7)c6)CC5)CC4)c4ccc(Cl)cc4)CC3)c21 (stereo partly drawn) [Compound I-207] | > 10 µM | > 10 µM | > 10 µM |
| NC1(C(=O)N[C@@H](CCN2CCC(OC3CCN(C(=O)c4cccc(C5CCCN(C(=O)C6CC6)C5)c4)CC3)CC2)c2ccc(Cl)cc2)CCN(c2ncnc3[nH]ccc23)CC1 (stereo partly drawn) [Compound I-248] | 5 to 10 µM | 5 to 10 µM | 1 to 5 µM |
| NC1(C(=O)N[C@@H](CCN2CCN(C(=O)CN3CCC(OC4CCN(C(=O)[C@H](NC(=O)c5cccc(C6CN(C(=O)C7CC7)C6)c5)C5CCCCC5)CC4)CC3)CC2)c2ccc(Cl)cc2)CCN(c2ncnc3[nH]ccc23)CC1 [Compound I-240] | 1 to 5 µM | 1 to 5 µM | 1 to 5 µM |
| C[C@@H]1C[C@@H](O)c2ncnc(N3CCN(C(=O)[C@H](CNCCNC(=O)CN4CCC(OC5CCN(C(=O)[C@H](NC(=O)c6cccc(C7CCCN(C(=O)CNCc8ccc(F)cc8F)C7)c6)C6CCCCC6)CC5)CC4)c4ccc(Cl)cc4)CC3)c21 (stereo partly drawn) [Compound I-208] | 1 to 5 µM | 1 to 5 µM | 1 to 5 µM |
| C[C@@H]1C[C@@H](O)c2ncnc(N3CCN(C(=O)[C@H](CNCCNC(=O)CN4CCC(OC5CCN(C(=O)[C@H](NC(=O)c6cccc(C7CCCN(C(=O)CNC8CC8)C7)c6)C6CCCCC6)CC5)CC4)c4ccc(Cl)cc4)CC3)c21 (stereo partly drawn) [Compound I-209] | 5 to 10 µM | 5 to 10 µM | 5 to 10 µM |
| CC(C)NC[C@@H](C(=O)N1CCN(c2ncnc3c2[C@H](C)C[C@H]3O)CC1)c1ccc(Cl)cc1 [GDC-0068, Ipatasertib, reference compound] | > 10 µM | > 10 µM | > 10 µM |
| CCOc1cc(OC)ccc1CNCC(=O)N1CCC[C@H](c2cccc(C(=O)N[C@@H](C(=O)N3CCN(CC4CCN(CC(C(=O)N5CCN(c6ncnc7c6[C@H](C)C[C@H]7O)CC5)c5ccc(Cl)cc5)CC4)CC3)C3CCCCC3)c2)C1 (stereo partly drawn) [Compound I-219] | 1 to 5 µM | 1 to 5 µM | 0.5 to 1 µM |
| NC1(C(=O)N[C@@H](CCN2CCN(C(=O)CN3CCC(OC4CCN(C(=O)[C@H](NC(=O)c5cccc(C6CCCN(C(=O)CNCc7ccc(F)cc7F)C6)c5)C5CCCCC5)CC4)CC3)CC2)c2ccc(Cl)cc2)CCN(c2ncnc3[nH]ccc23)CC1 (stereo partly drawn) [Compound I-258] | 1 to 5 µM | 1 to 5 µM | 0.5 to 1 µM |
| CCc1cccc(-c2cnc(C(=O)N3CCN(CC4CCN(CC(=O)NCCNC[C@@H](C(=O)N5CCN(c6ncnc7c6[C@H](C)C[C@H]7O)CC5)c5ccc(Cl)cc5)CC4)CC3)c(NC(=O)OC(C)(C)C)c2)c1 [Compound I-306] | 1 to 5 µM | 1 to 5 µM | 1 to 5 µM |
| CCc1cccc(-c2cnc(C(=O)N3CCN(CC45CCC(NCC(=O)NCCNC[C@@H](C(=O)N6CCN(c7cccc8c7[C@H](C)C[C@H]8O)CC6)c6ccc(Cl)cc6)(CC4)CO5)CC3)c(NC(=O)OC(C)(C)C)c2)c1 [Compound I-305] | 1 to 5 µM | 1 to 5 µM | 1 to 5 µM |
| N[C@@H](C(=O)N1CCC(OC2CCN(CC(=O)N3CCN(CC[C@H](NC(=O)C4(N)CCN(c5ncnc6[nH]ccc56)CC4)c4ccc(Cl)cc4)CC3)CC2)CC1)C1CCCCC1 [Compound I-235] | > 10 µM | > 10 µM | > 10 µM |
| NC1(C(=O)N[C@@H](CCN2CCN(C(=O)CN3CCC(OC4CCN(C(=O)[C@H](NC(=O)c5cc(C6CCCN(C(=O)C7CC7)C6)ccc5F)C5CCCCC5)CC4)CC3)CC2)c2ccc(Cl)cc2)CCN(c2ncnc3[nH]ccc23)CC1 (stereo partly drawn) [Compound I-224] | 1 to 5 µM | 1 to 5 µM | 1 to 5 µM |
| NC1(C(=O)N[C@@H](CCN2CCC(OC3CCN(C(=O)[C@H](NC(=O)c4cccc(C5CCCN(C(=O)CNCc6ccc(F)cc6F)C5)c4F)C4CCCCC4)CC3)CC2)c2ccc(Cl)cc2)CCN(c2ncnc3[nH]ccc23)CC1 (stereo partly drawn) [Compound I-279] | 1 to 5 µM | 1 to 5 µM | 0.5 to 1 µM |
| CC(C)(C)OC(=O)N[C@@H](C(=O)N1CCN(CC2CCN(CC(=O)N3CCN(CC[C@H](NC(=O)C4(N)CCN(c5ncnc6[nH]ccc56)CC4)c4ccc(Cl)cc4)CC3)CC2)CC1)C1CCCCC1 [Compound I-310] | 5 to 10 µM | 1 to 5 µM | 1 to 5 µM |

Continued, in another order:

| IC50 (MDAMB231.1) | IC50 (MDAMB468.1) | Structure (SMILES) | IC50 (KU1919.1) |
| --- | --- | --- | --- |
| 1 to 5 µM | 1 to 5 µM | CCOc1cc(OC)ccc1CNCC(=O)N1CCCC(c2cccc(C(=O)N[C@@H](C(=O)N3CCN(CC4CCN(CC(=O)NCCNC[C@@H](C(=O)N5CCN(c6ncnc7c6[C@H](C)C[C@H]7O)CC5)c5ccc(Cl)cc5)CC4)CC3)C3CCCCC3)c2)C1 (stereo partly drawn) [Compound I-17] | 1 to 5 µM |
| 1 to 5 µM | 1 to 5 µM | C[C@@H]1C[C@@H](O)c2ncnc(N3CCN(C(=O)C(CN4CCC(CN5CCN(C(=O)[C@H](NC(=O)c6cccc([C@H]7CCCN(C(=O)CNCc8ccc(F)cc8F)C7)c6)C6CCCCC6)CC5)CC4)c4ccc(Cl)cc4)CC3)c21 (stereo partly drawn) [Compound I-201] | 0.5 to 1 µM |
| 1 to 5 µM | 1 to 5 µM | CCc1cccc(-c2cnc(C(=O)N3CCN(CC4CCN(CC(=O)NCCNC[C@@H](C(=O)N5CCN(c6ncnc7c6[C@H](C)C[C@H]7O)CC5)c5ccc(Cl)cc5)CC4)CC3)c(N)c2)c1 [Compound I-213] | 1 to 5 µM |
| 1 to 5 µM | 1 to 5 µM | CCc1cccc(-c2cc(F)c(C(=O)N3CCC(OC4CCN(CC(=O)NCCNC[C@@H](C(=O)N5CCN(c6ncnc7c6[C@H](C)C[C@H]7O)CC5)c5ccc(Cl)cc5)CC4)CC3)c(F)c2)c1 [Compound I-261] | 1 to 5 µM |
| 1 to 5 µM | 1 to 5 µM | NC1(C(=O)N[C@@H](CCN2CCC(OC3CCN(C(=O)[C@H](NC(=O)c4cccc(C5CCCN(C(=O)CNC6CC6)C5)c4F)C4CCCCC4)CC3)CC2)c2ccc(Cl)cc2)CCN(c2ncnc3[nH]ccc23)CC1 (stereo partly drawn) [Compound I-283] | 1 to 5 µM |
| < 0.5 µM | < 0.5 µM | C[C@@H]1C[C@@H](O)c2ncnc(N3CCN(C(=O)C(CN4CCC(CN5CCN(C(=O)[C@H](NC(=O)c6cccc([C@H]7CCCN(C(=O)C8CC8)C7)c6F)C6CCCCC6)CC5)CC4)c4ccc(Cl)cc4)CC3)c21 (stereo partly drawn) [Compound I-277] | < 0.5 µM |
